Laboratory results from PubChem BioAssay (NCI).
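GI50: concentration for 50% inhibition of growth. TGI: concentration producing complete growth inhibition.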

Assays:
Assay in all cases: inhibition of tumour cell growth, NCI panel, 384-well format
[1] = system: 786-0 renal
[2] = system: A498 renal
[3] = system: A549 NSCLC
[4] = system: ACHN renal
[5] = system: BT-549 breast
[6] = system: CAKI-1 renal
[7] = system: CCRF-CEM leukemia
[8] = system: COLO 205 colon
[9] = system: DU-145 prostate
[10] = system: EKVX NSCLC
[11] = system: HCC-2998 colon
[12] = system: HCT-116 colon
[13] = system: HCT-15 colon
[14] = system: HL-60(TB) leukemia
[15] = system: HOP-62 NSCLC
[16] = system: HOP-92 NSCLC
[17] = system: HS 578T breast
[18] = system: HT29 colon
[19] = system: IGROV1 ovarian
[20] = system: K-562 leukemia
[21] = system: KM12 colon
[22] = system: LOX IMVI melanoma
[23] = system: M14 melanoma
[24] = system: MALME-3M melanoma
[25] = system: MCF7 breast
[26] = system: MDA-MB-231 breast
[27] = system: MDA-MB-435 melanoma
[28] = system: MDA-MB-468 breast
[29] = system: MOLT-4 leukemia
[30] = system: NCI-H226 lung
[31] = system: NCI-H23 lung
[32] = system: NCI-H322M lung
[33] = system: NCI-H460 NSCLC
[34] = system: NCI-H522 lung
[35] = system: NCI/ADR-RES ovarian
[36] = system: OVCAR-3 ovarian
[37] = system: OVCAR-4 ovarian
[38] = system: OVCAR-5 ovarian
[39] = system: OVCAR-8 ovarian
[40] = system: PC-3 prostate
[41] = system: RPMI-8226 leukemia
[42] = system: RXF 393 renal
[43] = system: SF-268 CNS
[44] = system: SF-295 CNS
[45] = system: SF-539 CNS
[46] = system: SK-MEL-28 melanoma
[47] = system: SK-MEL-5 melanoma
[48] = system: SK-OV-3 ovarian
[49] = system: SN12C renal
[50] = system: SNB-19 CNS
[51] = system: SNB-75 CNS
[52] = system: SW-620 colon
[53] = system: T-47D breast
[54] = system: TK-10 renal
[55] = system: U251 glioblastoma
[56] = system: UACC-257 melanoma
[57] = system: UACC-62 melanoma
[58] = system: UO-31 renal

COc1ccc(Oc2cc(NCCC(F)(F)F)c3ncc(-c4ccc(C(=O)NC5CC5)c(C)c4)n3n2)c(F)c1F
GI50 [1]: < 0.01 µM | TGI [1]: 14.3 µM | GI50 [2]: 0.189 µM | TGI [2]: 7.86 µM | GI50 [3]: < 0.01 µM | TGI [3]: 18.4 µM | GI50 [4]: 0.169 µM | TGI [4]: 26.9 µM | GI50 [5]: 0.256 µM | TGI [5]: 17 µM | GI50 [6]: 0.208 µM | TGI [6]: 2.48 µM | GI50 [7]: < 0.01 µM | TGI [7]: < 0.01 µM | GI50 [8]: < 0.01 µM | TGI [8]: > 100 µM | GI50 [9]: < 0.01 µM | TGI [9]: > 100 µM | GI50 [10]: 5.88 µM | TGI [10]: 84.2 µM | GI50 [11]: 13.1 µM | TGI [11]: > 100 µM | GI50 [12]: < 0.01 µM | TGI [12]: > 100 µM | GI50 [13]: < 0.01 µM | TGI [13]: 12.2 µM | GI50 [14]: < 0.01 µM | TGI [14]: < 0.01 µM | GI50 [15]: < 0.01 µM | TGI [15]: 4.93 µM | GI50 [16]: 1.16 µM | TGI [16]: 14.5 µM | GI50 [17]: 0.0204 µM | TGI [17]: 2.32 µM | GI50 [18]: < 0.01 µM | TGI [18]: > 100 µM | GI50 [19]: 0.337 µM | TGI [19]: 46.4 µM | GI50 [20]: 0.264 µM | TGI [20]: > 100 µM | GI50 [21]: 0.271 µM | TGI [21]: > 100 µM | GI50 [22]: < 0.01 µM | TGI [22]: 11.5 µM | GI50 [23]: 0.0101 µM | TGI [23]: 15.2 µM | GI50 [24]: 0.182 µM | TGI [24]: 26.7 µM | GI50 [25]: 1.75 µM | TGI [25]: 85 µM | GI50 [26]: 0.365 µM | TGI [26]: 30.1 µM | GI50 [27]: 0.286 µM | TGI [27]: 70 µM | GI50 [28]: < 0.01 µM | TGI [28]: 3.47 µM | GI50 [29]: < 0.01 µM | TGI [29]: < 0.01 µM | GI50 [30]: 4.83 µM | TGI [30]: 54.4 µM | GI50 [31]: < 0.01 µM | TGI [31]: 29.6 µM | GI50 [32]: 2.14 µM | TGI [32]: > 100 µM | GI50 [33]: < 0.01 µM | TGI [33]: 1.17 µM | GI50 [34]: 0.682 µM | TGI [34]: 14.3 µM | GI50 [35]: < 0.01 µM | TGI [35]: 0.568 µM | GI50 [36]: 0.365 µM | TGI [36]: 17.5 µM | GI50 [37]: 13.9 µM | TGI [37]: 67 µM | GI50 [38]: 0.977 µM | TGI [38]: > 100 µM | GI50 [39]: < 0.01 µM | TGI [39]: 3.68 µM | GI50 [40]: 1.43 µM | TGI [40]: 28.8 µM | GI50 [41]: < 0.01 µM | TGI [41]: 24.5 µM | GI50 [42]: < 0.01 µM | TGI [42]: 0.932 µM | GI50 [43]: < 0.01 µM | TGI [43]: < 0.01 µM | GI50 [44]: 1.41 µM | TGI [44]: 31.2 µM | GI50 [45]: < 0.01 µM | TGI [45]: 2.11 µM | GI50 [46]: 9.92 µM | TGI [46]: 40.7 µM | GI50 [47]: < 0.01 µM | TGI [47]: 18.5 µM | GI50 [48]: 0.459 µM | TGI [48]: 27 µM | GI50 [49]: 18.5 µM | TGI [49]: > 100 µM | GI50 [50]: 2.8 µM | TGI [50]: 39.8 µM | GI50 [51]: 0.0544 µM | TGI [51]: 13.3 µM | GI50 [52]: < 0.01 µM | TGI [52]: 18.5 µM | GI50 [53]: 2.11 µM | TGI [53]: 34.8 µM | GI50 [54]: 5.83 µM | TGI [54]: 62.2 µM | GI50 [55]: < 0.01 µM | TGI [55]: 17.4 µM | GI50 [56]: 3.09 µM | TGI [56]: 25.4 µM | GI50 [57]: 0.0441 µM | TGI [57]: 8.83 µM | GI50 [58]: < 0.01 µM | TGI [58]: 20 µM
